Reference: ChEMBL document CHEMBL5376009 (RSC Med Chem, 2024)

Experiments:
Influenza A virus [1] = assay: Antiviral activity against influenza A virus A/Guangdong/1/2009 (H1N1) infected in MDCK cells by plaque assay; type: functional, organism-based
A549 = assay: Cytotoxicity against human A549 cells by MTS assay; type: functional
Influenza A virus [2] = assay: Antiviral activity against influenza A virus A/Aichi/2/68 (H3N2) infected in MDCK cells by plaque assay; type: functional, organism-based
HEK-293T = assay: Cytotoxicity against human HEK293T cells by MTS assay; type: functional
Influenza A virus [3] = assay: Antiviral activity against influenza A virus A/PR/8/34 (H1N1) infected in MDCK cells by plaque assay; type: functional, organism-based
[4] = Cytotoxicity against MDCK cells by MTS assay; type: toxicity, cell-based, Canis lupus familiaris; details: dog
[5] = Cytotoxicity against MDCK cells; type: toxicity, cell-based, Canis lupus familiaris; details: dog
Influenza A virus [6] = assay: Antiviral activity against Influenza A virus A (H1N1); type: functional, organism-based
Influenza A virus [7] = assay: Antiviral activity against influenza A virus A/California/07/2009 (H1N1) infected in MDCK cells assessed as reduction in cytopathic effect by DAPI staining based analysis; type: functional, organism-based
Influenza A virus [8] = assay: Antiviral activity against influenza A virus A/Brisbane/59/2009 (H1N1) infected in MDCK cells assessed as reduction in cytopathic effect by DAPI staining based analysis; type: functional, organism-based
[9] = Cytotoxicity against HEK293T cells incubated for 48 hrs by Cell Titer-Glo assay; type: toxicity, cell-based, HEK-293T; details: human
Influenza A virus [10] = assay: Antiviral activity against influenza A virus A/California/07/2009 (H1N1) infected in MDCK cells assessed as reduction in cytopathic effect by fluorescence based analysis; type: functional, organism-based
Influenza A virus [11] = assay: Antiviral activity against influenza A virus H5N1 (RG14) infected in MDCK cells assessed as reduction in cytopathic effect by fluorescence based analysis; type: functional, organism-based
Influenza A virus [12] = assay: Antiviral activity against influenza A virus A/Udorn/1972 (H3N2) infected in MDCK cells assessed as reduction in cytopathic effect by fluorescence based analysis; type: functional, organism-based
Influenza A virus [13] = assay: Antiviral activity against influenza A virus H5N1 (RG14) infected in MDCK cells assessed as reduction in cytopathic effect by DAPI staining based analysis; type: functional, organism-based
Neuraminidase = Neuraminidase (Influenza A virus, UniProt B4URF0); assay: Inhibition of influenza A virus neuraminidase
Chain of Neuraminidase (B4URF0 whole entry): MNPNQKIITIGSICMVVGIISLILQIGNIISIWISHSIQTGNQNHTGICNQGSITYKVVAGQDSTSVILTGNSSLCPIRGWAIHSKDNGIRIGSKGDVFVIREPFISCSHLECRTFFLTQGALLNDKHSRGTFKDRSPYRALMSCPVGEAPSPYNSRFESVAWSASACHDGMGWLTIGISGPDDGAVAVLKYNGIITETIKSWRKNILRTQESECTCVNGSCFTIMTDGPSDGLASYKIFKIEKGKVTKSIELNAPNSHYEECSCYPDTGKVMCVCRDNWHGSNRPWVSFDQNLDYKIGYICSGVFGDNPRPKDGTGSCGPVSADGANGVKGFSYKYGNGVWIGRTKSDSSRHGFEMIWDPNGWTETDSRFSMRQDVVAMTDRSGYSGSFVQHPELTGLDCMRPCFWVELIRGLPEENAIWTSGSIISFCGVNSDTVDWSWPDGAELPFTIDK

[14] = Cytotoxicity against HEK293T cells assessed as reduction in cell viability measured after 48 hrs by Cell-Titer Glo assay; type: toxicity, cell-based, HEK-293T; details: human
Influenza A virus [15] = assay: Antiviral activity against influenza A virus A/Brisbane/59/2009 (H1N1) infected in MDCK cells assessed as reduction in cytopathic effect by fluorescence based analysis; type: functional, organism-based
Influenza A virus [16] = assay: Antiviral activity against influenza A virus A/Udorn/1972 (H3N2) infected in MDCK cells assessed as reduction in cytopathic effect by DAPI staining based analysis; type: functional, organism-based
Influenza A virus [17] = assay: Antiviral activity against influenza A virus […], A/WSN/33; type: functional, organism-based
Influenza A virus [18] = assay: Antiviral activity against influenza A virus H1N1, A/PR/8/34; type: functional, organism-based
Influenza A virus [19] = assay: Antiviral activity against influenza A virus H1N1, A/California/7/2009; type: functional, organism-based
[20] = Cytotoxicity against MDCK cells assessed as reduction in cell viability; type: toxicity, cell-based, Canis lupus familiaris; details: dog
[21] = Cytotoxicity against MDCK cells assessed as reduction in cell viability measured after 72 hrs by fluorescence based assay; type: toxicity, Canis lupus familiaris; details: dog
Influenza A virus [22] = assay: Antiviral activity against influenza A virus A/WSN/1933 (H1N1) infected in MDCK cells assessed as reduction in cytopathic effect by fluorescence based analysis; type: functional, organism-based
Influenza A virus [23] = assay: Antiviral activity against Influenza A virus A/PR/8/34 (H1N1) infected in human A549 cells pretreated with cell for 3 hrs followed by viral infection and measured for 24 hrs; type: functional, organism-based
[24] = Cytotoxicity against human A549 cells incubated for 48 hrs by neutral red uptake assay; type: toxicity, cell-based
Influenza A virus [25] = assay: Antiviral activity against influenza A virus H5N1,A/Vietnam/1194/2004 infected in MDCK cells assessed as reduction in plaque formation incubated for 72 hrs by crystal violet staining based analysis; type: functional, organism-based; details: H5N1,A/Vietnam/1194/2004, MDCK
[26] = Cytotoxicity against MDCK cells assessed as reduction in cell viability measured after 72 hrs by MTT assay; type: toxicity, cell-based, Canis lupus familiaris; details: dog
Influenza A virus [27] = assay: Antiviral activity against influenza A virus H1N1,A/WSN/1933 infected in MDCK cells assessed as reduction in plaque formation incubated for 72 hrs by crystal violet staining based analysis; type: functional, organism-based; details: H1N1,A/WSN/1933, MDCK
Influenza B virus [28] = assay: Antiviral activity against Influenza B virus B/Yamagata; type: functional, organism-based
Influenza B virus [29] = assay: Antiviral activity against Influenza B virus B/Victoria; type: functional, organism-based
Influenza A virus [30] = assay: Antiviral activity against Influenza A virus A/PR/8/34 (H1N1); type: functional, organism-based
Influenza A virus [31] = assay: Antiviral activity against Influenza A virus A/Brisbane/10/2007 (H3N2); type: functional, organism-based
Influenza A virus [32] = assay: Antiviral activity against influenza A H5N1 infected in MDCK cells assessed as viral growth inhibition measured for 12 to 72 hrs; type: functional, organism-based
[33] = Cytotoxicity against MDCK cells incubated for 72 hrs by CCK-8 assay; type: toxicity, cell-based, Canis lupus familiaris; details: dog

For `O=C(NC1CCCCCC1)c1cc2c(s1)-c1ccsc1CC2`, the EC50 (Influenza A virus [1]) was 1.14 µM, the CC50 (A549) was > 100 µM and the EC50 (Influenza A virus [2]) was 0.41 µM. The CC50 (HEK-293T) was > 100 µM, the EC50 (Influenza A virus [3]) was 1.03 µM and the CC50 [4] was > 100 µM.
In the case of `C=C1Cc2cc(C(F)(F)F)ccc2C(=O)NCC(C)(C)/C(=N/OC)CCCCOC1=O`, the CC50 [5] is reported as 211 µM and the EC50 (Influenza A virus [6]) is reported as 2.3 µM.
In the case of `Cc1onc(-c2ccccc2Cl)c1C(=O)N1CCN(c2ccc([N+](=O)[O-])cc2Cl)CC1`, the EC50 (Influenza A virus [7]) is reported as 1.2 µM, the EC50 (Influenza A virus [8]) is reported as 1.2 µM and the CC50 at 48 h [9] is reported as > 100 µM. For the same compound, the EC50 (Influenza A virus [10]) was 4.2 µM, the EC50 (Influenza A virus [11]) was 0.32 µM and the EC50 (Influenza A virus [12]) was 0.7 µM. For the same compound, the EC50 (Influenza A virus [13]) was 0.32 µM, the IC50 (Neuraminidase) was 0.1 µM and the CC50 at 48 h [14] was > 100 µM. It also gave an EC50 (Influenza A virus [15]) of 1.2 µM and an EC50 (Influenza A virus [16]) of 0.7 µM.
With `CC(=O)c1cc(O)ccc1O[C@@H]1O[C@H](CO)[C@@H](O)[C@H](OC(=O)c2cc(O)c(O)c(O)c2)[C@H]1OC(=O)c1cc(O)c(O)c(O)c1` the EC50 (Influenza A virus [17]) was 24.6 µM, the EC50 (Influenza A virus [18]) was 30.7 µM and the EC50 (Influenza A virus [19]) was 30.7 µM. The CC50 [20] was > 1000 µM.
In the case of `CN(C)S(=O)(=O)N1CCCC(CNC(=O)c2cccc(C(F)(F)F)c2)C1` (stereo not given), the CC50 at 72 h [21] is reported as > 100 µM and the EC50 (Influenza A virus [22]) is reported as 0.28 µM.
With `CCc1ccc(NC(=O)COC(=O)c2ccc3ccccc3n2)cc1` the EC50 (Influenza A virus [23]) was 51.6 µM and the CC50 at 48 h [24] was > 400 µM.
For `CCc1ccccc1N(CC(=O)Nc1cc(C)cc(C)c1)S(C)(=O)=O`, the EC50 (Influenza A virus [25]) was 0.086 µM, the CC50 at 72 h [26] was > 100 µM and the EC50 (Influenza A virus [27]) was 0.007 µM.
`COc1cccc(OC)c1C(=O)/C=C/c1nc(C)c(C)nc1C` showed an EC50 (Influenza B virus [28]) of 2.41 µM, an EC50 (Influenza B virus [29]) of 3.13 µM and an EC50 (Influenza A virus [30]) of 2.74 µM. It also gave a CC50 [5] of 41.5 µM and an EC50 (Influenza A virus [31]) of 3.44 µM.
`CC(=O)c1cc(O)ccc1O[C@@H]1O[C@H](COC(=O)c2cc(O)c(O)c(O)c2)[C@@H](O)[C@H](OC(=O)c2cc(O)c(O)c(O)c2)[C@H]1O` gave an EC50 (Influenza A virus [17]) of 11.6 µM, an EC50 (Influenza A virus [18]) of 20.2 µM and an EC50 (Influenza A virus [19]) of 29.2 µM. The CC50 [20] was 964 µM.
In the case of `NC(=O)c1nc(F)cnc1O` [FAVIPIRAVIR], the EC50 (Influenza A virus [17]) is reported as 37.4 µM, the EC50 (Influenza A virus [18]) is reported as 37.4 µM and the EC50 (Influenza A virus [19]) is reported as 37.4 µM. The CC50 [20] was > 1000 µM.
With `O[C@H]1[C@H]2c3cc4c(cc3CN3CCC(=C[C@@H]1O)[C@H]23)OCO4` [LYCORINE] the EC50 (Influenza A virus [32]) was < 0.46 µM and the CC50 at 72 h [33] was 20.9 µM.
